# Counter-ions that a name gives are not always drawn.
# Target: T1, wild type human RORγt ligand binding domain (RORyt LBD) (Homo sapiens, UniProt P51449)
# T1 construct: His-tag (N); TurboTEV protease cleavage site (ENLYFQG) (N); made in house; host or cells: E. coli (pHIS1, modified pET vector)
# T1 sequence (P51449 258-518): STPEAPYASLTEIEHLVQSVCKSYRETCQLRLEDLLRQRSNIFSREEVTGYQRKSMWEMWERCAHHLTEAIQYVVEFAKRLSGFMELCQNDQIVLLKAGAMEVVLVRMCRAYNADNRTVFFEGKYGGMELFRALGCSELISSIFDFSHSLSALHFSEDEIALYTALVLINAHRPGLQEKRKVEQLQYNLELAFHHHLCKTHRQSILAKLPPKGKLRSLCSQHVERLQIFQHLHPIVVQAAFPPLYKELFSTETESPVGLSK
# Experiment: RORγt ThermoFluor assay (thermal shift, binding affinity KD)
row,Structure (SMILES),Kd [nM]
1,"CC(=O)N1CCC(C(O)(c2ccccc2)c2ccc3nc(C)c(Cc4ccc(C(F)(F)F)cc4)c(Cl)c3c2)CC1 (single isomer, unassigned) [Example 27b, 1-(4-((4-Chloro-2-methyl-3-(4-(trifluoromethyl)benzyl)quinolin-6-yl)(hydroxy)(phenyl)methyl)piperidin-1-yl)ethanone]",0.63
2,"Cc1nc2ccc(C(O)(c3ccc(C(F)(F)F)nc3)c3cncn3C)cc2c(Cl)c1Cc1ccc(C(F)(F)F)cc1 (single isomer, unassigned) [Example 26b, (4-Chloro-2-methyl-3-(4-(trifluoromethyl)benzyl)quinolin-6-yl)(1-methyl-1H-imidazol-5-yl)(6-(trifluoromethyl)pyridin-3-yl)methanol]",15
3,"COc1nc2ccc(C(O)(c3ccccn3)c3cncn3C)cc2c(Cl)c1Cc1ccc(S(C)(=O)=O)cc1 (single isomer, unassigned) [Example 58b, (4-Chloro-2-methoxy-3-(4-(methylsulfonyl)benzyl)quinolin-6-yl)(1-methyl-1H-imidazol-5-yl)(pyridin-2-yl)methanol]",3600
4,"COc1nc2ccc(C(O)(c3cnc(C)n3C)c3cnc(C)n3C)cc2c(C#N)c1Cc1ccc(C(F)(F)F)cc1 [Example 11, 6-(bis(1,2-Dimethyl-1H-imidazol-5-yl)(hydroxy)methyl)-2-methoxy-3-(4-(trifluoromethyl)benzyl)quinoline-4-carbonitrile]",0.013
5,"CCc1nc2ccc(C(O)(c3cnc(C)n3C)c3cnc(C)n3C)cc2c(C#N)c1Cc1ccc(C(F)(F)F)cc1 [Example 8, 6-(bis(1,2-Dimethyl-1H-imidazol-5-yl)(hydroxy)methyl)-2-ethyl-3-(4-(trifluoromethyl)benzyl)quinoline-4-carbonitrile.TFA]",0.009
6,"COc1nc2ccc(C(O)(c3ccccn3)c3cncn3C)cc2c(Cl)c1Cc1cc2ccccc2s1 (single isomer, unassigned) [Example 59b, (3-(Benzo[b]thiophen-2-ylmethyl)-4-chloro-2-methoxyquinolin-6-yl)(1-methyl-1H-imidazol-5-yl)(pyridin-2-yl)methanol]",34
7,"COc1nc2ccc(C(O)(c3cnc(C)n3C)c3cnc(C)n3C)cc2c(Cl)c1Cc1cccc(C(F)(F)F)c1 [Example 5, (4-Chloro-2-methoxy-3-(3-(trifluoromethyl)benzyl)quinolin-6-yl)bis(1,2-dimethyt-1H-imidazol-5-yt)methanol•TFA]",0.041
8,"Cc1nc2ccc(C(O)(c3cnnn3C)c3cnc(C)n3C)cc2c(Cl)c1Cc1ccc(C(F)(F)F)cc1 (single isomer, unassigned) [Example 29c, (4-Chloro-2-methyl-3-(4-(trifluoromethyl)benzyl)quinolin-6-yl)(1,2-dimethyl-1H-imidazol-5-yl)(1-methyl-1H-1,2,3-triazol-5-yl)methanol]",0.15
9,"COc1nc2ccc(C(O)(c3cnc(C)n3C)c3cnc(C)n3C)cc2c(C#N)c1Cc1cccc(C(F)(F)F)c1 [Example 9, 6-(bis(1,2-Dimethyl-1H-imidazol-5-yl)(hydroxy)methyl)-2-methoxy-3-(3-(trifluoromethyl)benzyl)quinoline-4-carbonitrile•TFA]",0.055
10,"CC(=O)N1CC(C(O)(c2ccc3nc(C)c(Cc4ccc(C(F)(F)F)cc4)c(Cl)c3c2)c2cnnn2C)C1 (single isomer, unassigned) [Example 32b, 1-(3-((4-Chloro-2-methyl-3-(4-(trifluoromethyl)benzyl)quinolin-6-yl)(hydroxy)(1-methyl-1H-1,2,3-triazol-5-yl)methyl)azetidin-1-yl)ethanone]",0.86
11,"COc1nc2ccc(C(O)(c3cnnn3C)C3CN(C)C3)cc2c(Cl)c1Cc1ccc(C(F)(F)F)cc1 (racemic) [Example 90a, (4-Chloro-2-methoxy-3-(4-(trifluoromethyl)benzyl)quinolin-6-yl)(1-methyl-1H-1,2,3-triazol-5-yl)(1-methylazetidin-3-yl)methanol]",5
12,"CC(=O)N1CC(C(O)(c2ccc3nc(C)c(Cc4ccc(C(F)(F)F)cc4)c(Cl)c3c2)c2cnnn2C)C1 (stereo not drawn) [Example 32a, 1-(3-((4-Chloro-2-methyl-3-(4-(trifluoromethyl)benzyl)quinolin-6-yl)(hydroxy)(1-methyl-1H-1,2,3-triazol-5-yl)methyl)azetidin-1-yl)ethanone]",1.1
13,"COc1nc2ccc(C(O)(c3cnc(C)n3C)c3cnc(C)n3C)cc2c(Cl)c1Cc1ccc(C(F)(F)F)nc1 [Example 45, (4-Chloro-2-methoxy-3-((6-(trifluoromethyl)pyridin-3-yl)methyl)quinolin-6-yl)bis(1,2-dimethyl-1H-imidazol-5-yl)methanol]",0.21
14,"COc1nc2ccc(C(O)(c3c(C)noc3C)c3cnnn3C)cc2c(C#N)c1Cc1ccc(C(F)(F)F)cc1 (stereo not drawn) [Example 94, 6-((3,5-Dimethylisoxazol-4-yl)(hydroxy)(1-methyl-1H-1,2,3-triazol-5-yl)methyl)-2-methoxy-3-(4-(trifluoromethyl)benzyl)quinoline-4-carbonitrile]",0.48
15,"COc1nc2ccc(C(O)(c3ccc(C)nc3C)c3cnc(C)n3C)cc2c(Cl)c1Cc1ccc(C(F)(F)F)cc1 (single isomer, unassigned) [Example 57c, (4-Chloro-2-methoxy-3-(4-(trifluoromethyl)benzyl)quinolin-6-yl)(1,2-dimethyl-1H-imidazol-5-yl)(2,6-dimethylpyridin-3-yl)methanol]",0.02
16,"CCc1nc2ccc(C(O)(c3cnnn3C)C3CN(C(C)=O)C3)cc2c(C#N)c1Cc1ccc(C(F)(F)F)cc1 (single isomer, unassigned) [Example 36, 6-((1-Acetylazetidin-3-yl)(hydroxy)(1-methyl-1H-1,2,3-triazol-5-yl)methyl)-2-ethyl-3-(4-(trifluoromethyl)benzyl)quinoline-4-carbonitrile]",0.73
17,"CCc1nc2ccc(C(O)(c3cnc(C)n3C)C3CCOCC3)cc2c(Cl)c1Cc1ccc(C(F)(F)F)cc1 (single isomer, unassigned) [Example 34b, (4-Chloro-2-ethyl-3-(4-(trifluoromethyl)benzyl)quinolin-6-yl)(1,2-dimethyl-1H-imidazol-5-yl)(tetrahydro-2H-pyran-4-yl)methanol]",0.03
18,"COc1nc2ccc(C(O)(C3CN(C(C)=O)C3)C3CN(C(C)=O)C3)cc2c(Cl)c1Cc1ccc(C(F)(F)F)cc1 [Example 3, 1,1'-(3,3'-((4-Chloro-2-methoxy-3-(4-(trifluoromethyl)benzyl)quinolin-6-yl)(hydroxy)methylene)bis(azetidine-3,1-diyl))diethanone]",46
19,"COc1nc2ccc(C(O)(c3ccccn3)c3cncn3C)cc2c(Cl)c1Cc1cc2ccccc2s1 (single isomer, unassigned) [Example 59c, (3-(Benzo[b]thiophen-2-ylmethyl)-4-chloro-2-methoxyquinolin-6-yl)(1-methyl-1H-imidazol-5-yl)(pyridin-2-yl)methanol]",800
20,"COc1nc2ccc(C(O)(c3cnc(C)n3C)c3cnc(C)n3C)cc2c(Cl)c1Cc1ccc(C(F)(F)F)s1 [Example 7, (4-Chloro-2-methoxy-3-((5-(trifluoromethyl)thiophen-2-yl)methyl)quinolin-6-yl)bis(1,2-dimethyl-1H-imidazol-5-yl)methanol•TFA]",0.032
21,"Cc1nc2ccc(C(O)(c3cnnn3C)c3cnc(C)n3C)cc2c(Cl)c1Cc1ccc(C(F)(F)F)cc1 (single isomer, unassigned) [Example 29b, (4-Chloro-2-methyl-3-(4-(trifluoromethyl)benzyl)quinolin-6-yl)(1,2-dimethyl-1H-imidazol-5-yl)(1-methyl-1H-1,2,3-triazol-5-yl)methanol]",0.04
22,"COc1nc2ccc(C(O)(c3cnc(C)n3C)c3cnc(C)n3C)cc2c(Cl)c1Cc1ccccc1C(F)(F)F [Example 6, (4-Chloro-2-methoxy-3-(2-(trifluoromethyl)benzyl)quinolin-6-yl)bis(1,2-dimethyl-1H-imidazol-5-yl)methanol•TFA]",0.046
23,"CCc1nc2ccc(C(O)(c3cnnn3C)C3CCOCC3)cc2c(Cl)c1Cc1ccc(C(F)(F)F)cc1 (single isomer, unassigned) [Example 33c, (4-Chloro-2-ethyl-3-(4-(trifluoromethyl)benzyl)quinolin-6-yl)(1-methyl-1H-1,2,3-triazol-5-yl)(tetrahydro-2H-pyran-4-yl)methanol]",0.84
24,"COc1nc2ccc(C(O)(c3c(C)noc3C)c3cnnn3C)cc2c(Cl)c1Cc1ccc(C(F)(F)F)cc1 (stereo not drawn) [Example 93, (4-Chloro-2-methoxy-3-(4-(trifluoromethyl)benzyl)quinolin-6-yl)(3,5-dimethylisoxazol-4-yl)(1-methyl-1H-1,2,3-triazol-5-yl)methanol]",0.6
25,"CCc1nc2ccc(C(O)(c3cnnn3C)C3CCOCC3)cc2c(Cl)c1Cc1ccc(C(F)(F)F)cc1 (stereo not drawn) [Example 33a, (4-Chloro-2-ethyl-3-(4-(trifluoromethyl)benzyl)quinolin-6-yl)(1-methyl-1H-1,2,3-triazol-5-yl)(tetrahydro-2H-pyran-4-yl)methanol]",0.05
26,"Cc1nc2ccc(C(O)(c3cnnn3C)c3cnc(C)n3C)cc2c(Cl)c1Cc1ccc(C(F)(F)F)cc1 (stereo not drawn) [Example 29a, (4-Chloro-2-methyl-3-(4-(trifluoromethyl)benzyl)quinolin-6-yl)(1,2-dimethyl-1H-imidazol-5-yl)(1-methyl-1H-1,2,3-triazol-5-yl)methanol]",0.06
27,"COc1nc2ccc(C(O)(c3ccc(C)nc3C)c3cnc(C)n3C)cc2c(Cl)c1Cc1ccc(C(F)(F)F)nc1 (stereo not drawn) [Example 42a, (4-Chloro-2-methoxy-3-((6-(trifluoromethyl)pyridin-3-yl)methyl)quinolin-6-yl)(1,2-dimethyl-1H-imidazol-5-yl)(2,6-dimethylpyridin-3-yl)methanol]",0.38

# From patent EP3057951B1, “METHYLENE LINKED QUINOLINYL MODULATORS OF ROR-GAMMA-T” (Janssen Pharmaceutica NV, priority 2013, dated 2015)
